Assay results: patent US20250197420A1, “MACROCYCLIC COMPOUNDS, COMPOSITIONS, AND METHODS OF USING THEREOF” (Sionna Therapeutics Inc., priority 2022, published 2025)

What was measured:
[1] = molecular target: T1, Purified recombinant NBD1 (Homo sapiens, UniProt P13569); test: Aggregation analysis using differential static light scattering (DSLS): thermal stability of NBD1; type: binding; settings: NBD1 0.2 mg/ml; Tagg of compound well minus average Tagg of DMSO control wells
T1 construct: Purified recombinant NBD1 was produced using previously described methods; made in house
T1 sequence (P13569 423-646 limits assumed): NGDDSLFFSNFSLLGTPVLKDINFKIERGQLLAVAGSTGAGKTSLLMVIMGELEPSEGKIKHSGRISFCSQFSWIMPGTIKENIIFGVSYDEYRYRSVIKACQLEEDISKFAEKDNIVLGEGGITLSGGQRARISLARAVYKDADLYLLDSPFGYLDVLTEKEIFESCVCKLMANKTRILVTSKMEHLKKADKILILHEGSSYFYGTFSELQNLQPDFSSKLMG
Outline: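 Recombinant NBD1 at 0.2 mg/ml in Tris/NaCl/MgCl2 buffer with 2 mM ATP, 2 mM DTT, 1% glycerol, pH 7.6, was incubated with compound and heated at 1 °C/min to 70 °C while static light scattering was monitored. Tagg was taken from the curve inflection point and reported as ΔTagg relative to DMSO controls.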

[2] = tested on: Primary human bronchial epithelial cells from a ΔF508 homozygous CF donor (CF-HBE cells); test: TECC24 recording of CFTR-mediated transepithelial chloride transport, AUC fold over benchmark VX-809 @10 μM; type: cell-based; settings: 48 hours incubation, AUC of forskolin-stimulated IEQ
Outline: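 CF-HBE cells on inserts were treated with compound for 48 h at 36.5 °C, then recorded in current-clamp with benzamil 10 μM, forskolin 10 μM, and finally CFTR inhibitor-172 20 μM in pH 7.4 Hepes saline. Equivalent Cl− current AUC between forskolin and inhibitor addition is expressed as a ratio to VX-809 AUC: A <3, B 3–6, C 6–20.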

SMILES | DSLS (ΔTagg) [1] | TECC (test agent AUC divided by VX-809 AUC) [2]
CN1CC(C)(C)CCC(C)(c2cccc(CCC(=O)O)c2)c2nc(n(C)n2)-c2cc(ccc2F)Oc2c(F)cc3[nH]ccc3c2CCC1=O (single isomer, unassigned) [Compound 75B, 3-[3-(22,28-difluoro-3,6,9,9,11-pentamethyl-12-oxo-24-oxa-3,4,11,19,30-pentazapentacyclo[23.3.1.12,5.015,23.016,20]triaconta-1(29),2(30),4,15,17,20,22,25,27-nonaen-6-yl)phenyl]propanoic acid] | A (an ΔTagg value less than or equal to 5 °C is marked “A”) | A (a TECC value less than 3 is marked “A”)
[2H]C([2H])([2H])n1nc2nc1-c1cc(ccc1F)Oc1c(F)cc3[nH]ccc3c1CCC(=O)NCC(C)(C)CCCC2(C)c1cccc(CCC(=O)O)c1 (single isomer, unassigned) [Compound 76A, 3-[3-[23,29-difluoro-6,10,10-trimethyl-13-oxo-3-(trideuteriomethyl)-25-oxa-3,4,12,20,31-pentazapentacyclo[24.3.1.12,5.016,24.017,21]hentriaconta-1(30),2(31),4,16,18,21,23,26,28-nonaen-6-yl]phenyl]propanoic acid] | A (an ΔTagg value less than or equal to 5 °C is marked “A”) | A (a TECC value less than 3 is marked “A”)
[2H]C([2H])([2H])n1nc2nc1-c1cc(ccc1F)Oc1c(F)cc3[nH]ccc3c1CCC(=O)NCC(C)(C)CCCC2(C)c1cccc(CCC(=O)O)c1 (single isomer, unassigned) [Compound 76B, 3-[3-[23,29-difluoro-6,10,10-trimethyl-13-oxo-3-(trideuteriomethyl)-25-oxa-3,4,12,20,31-pentazapentacyclo[24.3.1.12,5.016,24.017,21]hentriaconta-1(30),2(31),4,16,18,21,23,26,28-nonaen-6-yl]phenyl]propanoic acid] | C (a value greater than 10 °C and less than or equal to 25 °C is marked “C”) | C (a value between 6 and 20 is marked “C”)
[2H]C([2H])([2H])n1nc2nc1-c1cc(ccc1F)Oc1c(F)cc3[nH]ccc3c1CCC(=O)N(C)CC(C)(C)CCCC2(C)c1cccc(CCC(=O)O)c1 (single isomer, unassigned) [Compound 77A, 3-[3-[23,29-difluoro-6,10,10,12-tetramethyl-13-oxo-3-(trideuteriomethyl)-25-oxa-3,4,12,20,31-pentazapentacyclo[24.3.1.12,5.016,24.017,21]-hentriaconta-1(30),2(31),4,16,18,21,23,26,28-nonaen-6-yl]phenyl]propanoic acid] | C (a value greater than 10 °C and less than or equal to 25 °C is marked “C”) | C (a value between 6 and 20 is marked “C”)
[2H]C([2H])([2H])n1nc2nc1-c1cc(ccc1F)Oc1c(F)cc3[nH]ccc3c1CCC(=O)N(C)CC(C)(C)CCCC2(C)c1cccc(CCC(=O)O)c1 (single isomer, unassigned) [Compound 77B, 3-[3-[23,29-difluoro-6,10,10,12-tetramethyl-13-oxo-3-(trideuteriomethyl)-25-oxa-3,4,12,20,31-pentazapentacyclo[24.3.1.12,5.016,24.017,21]-hentriaconta-1(30),2(31),4,16,18,21,23,26,28-nonaen-6-yl]phenyl]propanoic acid] | A (an ΔTagg value less than or equal to 5 °C is marked “A”) | A (a TECC value less than 3 is marked “A”)
